Values after ≈ are worked out from the molar mass of the structure shown. Values joined by “and” are separate entries in the source; they are usually repeats but may differ in a detail not shown here. Identical values can stand only once. “Also recorded” adds a separate entry of the source. Like-named read-outs stand apart in the source and are kept apart here. Marks after values point to notes of the source that are not given here.
What was measured:
[1] = test system: MsmgΔmmpL3 expressing wild-type mmpL3tb; test: microbe, parasite or virus in culture; type: cell-based
Mtb = test: MIC values against Mtb used for the PMF assays; type: cell-based, Mycobacterium tuberculosis; conditions: read-out: MIC values
E. coli BL21(DE3) IMVs = test: Succinate-driven proton translocation assay (ACMA) in inverted membrane vesicles; type: biochemical; conditions: 2 μg/mL
Procedure: (§1) FIG. 19A: The reactions were initiated by adding 5 mM succinate. Upon stabilization of the signal, control compounds (INH, RIF, nigericin), the MmpL3 inhibitors or diluent (water, used for INH, or 0.2% DMSO, used for all other compounds) were added and proton translocation monitored fluorimetrically. MmpL3 inhibitors and controls were used at one and four times their MIC concentrations against Mtb. Shown are the averages and standard deviations (error bars) of triplicate measurements.
(§2) Succinate-driven proton translocation assays with the fluorescent substrate ACMA were conducted as previously described (see e.g., Li et al. J. Med. Chem. 2014, 57: 3126-3139) to determine the effect of MmpL3 inhibitors on the electrochemical proton gradient of Mtb H37Rv mc^26206 and E. coli BL21(DE3) IMVs. IMVs (0.18 mg/mL membrane proteins) were pre-incubated at 37° C. in 10 mM HEPES-KOH pH 7.5, 100 mM KCl, 5 mM MgCl2 containing 2 μM ACMA and the baseline monitored for 10 min with a fluorescence spectrophotometer (Victor X5, PerkinElmer). The reaction was then initiated by adding 5 mM succinate. Upon stabilization of the signal, control compounds (INH, RIF, nigericin), MmpL3 inhibitors, or diluent (0.2% DMSO or water) were added and proton translocation monitored fluorimetrically. The excitation and emission wavelengths were 410 nm and 480 nm, respectively.

[2] = test system: Mtb H37Rv mc^26206 inverted membrane vesicles (IMVs); test: as above; type: biochemical, Mycobacterium tuberculosis; conditions: one and four times MIC against Mtb
Procedure: as §1, §2

[3] = test system: MsmgΔmmpL3 expressing mmpL3tb L567P; type: cell-based, Mycobacterium smegmatis
[4] = test system: MsmgΔmmpL3 expressing mmpL3tb F644C; type: cell-based, Mycobacterium smegmatis
[5] = test system: MsmgΔmmpL3 expressing mmpL3tb T311I; type: cell-based, Mycobacterium smegmatis
[6] = test system: MsmgΔmmpL3 expressing mmpL3tb L189R; type: cell-based, Mycobacterium smegmatis
[7] = test system: MsmgΔmmpL3 expressing mmpL3tb V684A; type: cell-based, Mycobacterium smegmatis
[8] = test system: MsmgΔmmpL3 expressing mmpL3tb Q372R; type: cell-based, Mycobacterium smegmatis
MmpL3tb (MmpL3^WT) = MmpL3tb (MmpL3^WT) (Mycobacterium tuberculosis, UniProt P9WJV5); type: binding; conditions: 50, 100 and 200 μM
[9] = test system: MsmgΔmmpL3 expressing mmpL3tb S288T; type: cell-based, Mycobacterium smegmatis
[10] = test system: MsmgΔmmpL3 expressing mmpL3tb G253E; type: cell-based, Mycobacterium smegmatis
[11] = test system: MsmgΔmmpL3 expressing mmpL3tb S309C; type: cell-based, Mycobacterium smegmatis
[12] = test system: MsmgΔmmpL3 expressing mmpL3tb V684G; type: cell-based, Mycobacterium smegmatis
[13] = test system: MsmgΔmmpL3 expressing mmpL3tb S591I; type: cell-based, Mycobacterium smegmatis
[14] = test system: MsmgΔmmpL3 expressing mmpL3tb G253W; type: cell-based, Mycobacterium smegmatis
[15] = test system: MsmgΔmmpL3 expressing mmpL3tb S591G; type: cell-based, Mycobacterium smegmatis
[16] = test system: MsmgΔmmpL3 expressing mmpL3tb S591W; type: cell-based, Mycobacterium smegmatis
[17] = test system: MsmgΔmmpL3 expressing mmpL3tb F644C/I/L; type: cell-based, Mycobacterium smegmatis
[18] = test system: MsmgΔmmpL3 expressing mmpL3tb V684I; type: cell-based, Mycobacterium smegmatis
[19] = test system: MsmgΔmmpL3 expressing mmpL3tb G253R; type: cell-based, Mycobacterium smegmatis
purified MmpL3-GFP = purified MmpL3-GFP (Mycobacterium tuberculosis, UniProt P9WJV5); type: binding
[20] = test system: MsmgΔmmpL3 expressing mmpL3tb LI89A; test: microbe, parasite or virus in culture; type: cell-based; conditions: Table 2, mutant LI89A
[21] = test system: MsmgΔmmpL3 expressing mmpL3tb V684W; type: cell-based, Mycobacterium smegmatis
[22] = test system: MsmgΔmmpL3 expressing mmpL3tb F644Y; type: cell-based, Mycobacterium smegmatis
purified MmpL3tb protein = purified MmpL3tb protein (Mycobacterium tuberculosis, UniProt P9WJV5); test: Surface Plasmon Resonance binding to immobilized MmpL3tb; conditions: for Kd: read-out: KD1
[23] = test system: MmpL3tb-GFP in MsmgΔmmpL3/pMVGH1-mmpL3tb-GFP cells; type: cell-based; conditions: 2 μM probe, 4 h at 37° C.
[24] = target: T1, MmpL3tb- and MmpL3tb-GFP-coated particles (Mycobacterium tuberculosis, UniProt P9WJV5); type: binding; conditions: 15 min at room temperature; various probe concentrations
T1 construct: His tag; made in house; host or cells: Mycobacterium smegmatis ΔmmpL3 carrying pMVGH1-mmpL3tb or pMVGH1-mmpL3tb-gfp

[25] = Mycolicibacterium smegmatis, Tables 1A-1B, MmpL3 WT, read-out: MIC

Chain of MmpL3tb (MmpL3^WT) (P9WJV5 whole entry): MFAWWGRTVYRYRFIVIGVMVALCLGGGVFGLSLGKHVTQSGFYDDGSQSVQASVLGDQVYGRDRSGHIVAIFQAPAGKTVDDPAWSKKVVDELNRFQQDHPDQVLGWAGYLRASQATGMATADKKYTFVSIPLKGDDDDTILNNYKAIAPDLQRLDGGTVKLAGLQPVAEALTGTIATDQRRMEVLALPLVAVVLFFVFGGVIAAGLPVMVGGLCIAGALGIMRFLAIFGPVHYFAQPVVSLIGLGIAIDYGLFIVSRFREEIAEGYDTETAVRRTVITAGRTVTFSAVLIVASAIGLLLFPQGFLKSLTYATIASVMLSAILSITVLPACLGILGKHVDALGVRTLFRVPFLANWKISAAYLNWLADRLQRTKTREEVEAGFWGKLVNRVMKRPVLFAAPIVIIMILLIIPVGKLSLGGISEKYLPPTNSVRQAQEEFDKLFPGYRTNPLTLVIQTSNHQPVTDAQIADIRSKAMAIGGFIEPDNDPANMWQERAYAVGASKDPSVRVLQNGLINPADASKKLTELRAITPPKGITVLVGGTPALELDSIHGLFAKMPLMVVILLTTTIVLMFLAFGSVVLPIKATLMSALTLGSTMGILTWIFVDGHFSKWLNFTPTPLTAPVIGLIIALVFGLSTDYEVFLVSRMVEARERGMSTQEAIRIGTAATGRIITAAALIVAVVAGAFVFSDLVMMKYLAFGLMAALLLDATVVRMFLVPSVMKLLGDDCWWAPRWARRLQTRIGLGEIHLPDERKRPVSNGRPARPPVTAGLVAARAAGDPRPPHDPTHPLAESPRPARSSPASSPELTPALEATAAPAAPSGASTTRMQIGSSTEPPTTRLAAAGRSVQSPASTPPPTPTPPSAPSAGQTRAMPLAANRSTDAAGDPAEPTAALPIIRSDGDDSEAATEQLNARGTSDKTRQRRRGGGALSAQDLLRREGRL
Chain of purified MmpL3tb protein (P9WJV5 whole entry): as above
T1 sequence (P9WJV5 whole entry): as above
Chain of purified MmpL3-GFP (P9WJV5 whole entry): as above

Row | Compound | MIC ([1]; Tables 1A-1B, MmpL3 WT) [µg/mL] | MIC [3] | MIC [4] [µg/mL] | MIC [5] | MIC [6] | MIC [7] | MIC [8] | MIC [1, 25] [µg/mL] | BLI binding signal (MmpL3tb (MmpL3^WT)) | MIC [9] | MIC [10] | MIC [11] | MIC [12] | MIC [13] | further results
1 | N-cyclooctyl-5-((1-(3-(3-(5,5-difluoro-7,9-dimethyl-5H-5λ^4,6λ^4-dipyrrolo[1,2-c:2′,1′-f][1,3,2]diazaborinin-3-yl)propanamido)propyl)-1H-1,2,3-triazol-4-yl)methoxy)-1H-indole-2-carboxamide [Compound 3] | 32 | – | – | – | – | – | – | – | – | – | – | – | – | – | –
2 | CO[C@H]1/C=C/O[C@@]2(C)Oc3c(C)c(O)c4c(O)c(c(/C=N/N5CCN(C)CC5)c(O)c4c3C2=O)NC(=O)/C(C)=C\C=C\[C@H](C)[C@H](O)[C@@H](C)[C@@H](O)[C@@H](C)[C@H](OC(C)=O)[C@@H]1C [RIF, rifampicin] | – | – | – | – | – | – | – | – | – | – | – | – | – | – | MIC (Mtb; Mycobacterium tuberculosis): 0.19 µM (≈ 0.156 µg/mL)
3 | CO[C@@H]1C[C@@H](C[C@H]2CC[C@H](C)[C@H]([C@@H](C)C(=O)O)O2)O[C@]2(O[C@](C)([C@H]3CC[C@@](C)([C@@H]4O[C@@H]([C@H]5O[C@@](O)(CO)[C@H](C)C[C@@H]5C)C[C@@H]4C)O3)C[C@H]2C)[C@@H]1C [nigericin] | – | – | – | – | – | – | – | – | – | – | – | – | – | – | MIC (Mtb; Mycobacterium tuberculosis, against Mtb, FIG. 8 legend): 4.31 µM (≈ 3.12 µg/mL); effect on ΔpH of E. coli IMVs (E. coli BL21(DE3) IMVs): collapse the ΔpH of E. coli IMVs; effect on ΔpH of Mtb IMVs [2]: increase of fluorescence intensity indicative of ΔpH collapse
4 | Cc1cc(C)c2cc(C(=O)NC3CCCCCCC3)[nH]c2c1 [North 21] | – | 0.1 µg/mL (≈ 0.335 µM) | 0.05 (≈ 0.168 µM) | 0.05 µg/mL (≈ 0.168 µM) | 0.2^b μg/mL | 0.05 µg/mL (≈ 0.168 µM) | 0.05 µg/mL (≈ 0.168 µM) | 0.05 (≈ 0.168 µM) | consistently bound to MmpL3tb with the strongest signals | 0.2^b μg/mL | 0.2^b μg/mL | 0.2^b μg/mL | 0.2^b μg/mL | 0.1 µg/mL (≈ 0.335 µM) | –
5 | N#CC(C#N)=NNc1cccc(Cl)c1 [CCCP] | – | – | – | – | – | – | – | – | – | – | – | – | – | – | MIC (Mtb; against Mtb, FIG. 8 legend): 6.25 µM (≈ 1.28 µg/mL)
6 | AU1235 | 0.39 | 0.78 µg/mL | 0.78 | 1.56^b μg/mL | 1.56^b μg/mL and 1.25 μg/mL | 1.56^b μg/mL and 1.25 μg/mL | 0.78 µg/mL | – | weak binding signal | 12.5^a μg/mL | 3.13^a μg/mL and 5 μg/mL | 3.13^b μg/mL | 3.13^a μg/mL and 2.5 μg/mL | 3.13^a μg/mL and 2.5 μg/mL | MIC [14]: 2.5-5 ^ μg/mL; MIC [15]: 0.31-0.62^c μg/mL; MIC (Mtb; against Mtb, FIG. 8 legend): 0.48 µM; MIC ([1]; Table 2, MmpL3 WT): 0.31 µg/mL; MIC [16]: 0.62^c μg/mL; MIC [17]: 0.62 µg/mL; MIC [18]: 0.31^c μg/mL; MIC [19]: 0.62^c μg/mL; displacement of Compound 2 from purified MmpL3tb (purified MmpL3-GFP): clear concentration-dependent displacement; MIC [20]: 0.62^c μg/mL; MIC [21]: 0.62 µg/mL; MIC [22]: 0.15^c μg/mL; effect on ΔpH of Mtb IMVs [2]: increase of fluorescence intensity indicative of ΔpH collapse; also recorded: also collapsed ΔpH in this assay when used at 4-fold MIC concentration; Model (best-fit kinetic model) (purified MmpL3tb protein): Two-state reaction; SPR binding signal (purified MmpL3tb protein): strong SPR signals; ka1 (purified MmpL3tb protein): 1858.1 M⁻¹ s⁻¹; ka2 (purified MmpL3tb protein): 0.019 1/RU*s; kd1 (purified MmpL3tb protein): 0.39 s⁻¹; kd2 (purified MmpL3tb protein): 0.0316 s⁻¹; Kd (purified MmpL3tb protein): 132 µM
7 | CN(C)c1ccc2c(-c3ccc(C(=O)NCCCCCCn4cc(COc5ccc6[nH]c(C(=O)NC7CCCCCCC7)cc6c5)nn4)cc3C(=O)O)c3ccc(=[N+](C)C)cc-3oc2c1 [Compound 1] | – | 32^b μg/mL | 16 | >32^b μg/mL | >32^b μg/mL | >32^b μg/mL | >32^b μg/mL | 8 | – | >32^b μg/mL | >32^b μg/mL | >32^b μg/mL | >32^b μg/mL | >32^b μg/mL | colocalization with MmpL3tb-GFP [23]: colocalization of the probes with MmpL3tb-GFP; probe binding to coated particles (MFI) [24]: concentration-dependent binding; ka2 (purified MmpL3tb protein; SPR global fit): 0.039 1/RU*s; kd1 (purified MmpL3tb protein; SPR global fit): 0.19 s⁻¹; kd2 (purified MmpL3tb protein; SPR global fit): 0.0273 s⁻¹; ka1 (purified MmpL3tb protein; SPR global fit, HEPES-TX buffer with 5% DMSO): 2138.3 M⁻¹ s⁻¹; Model (best-fit kinetic model) (purified MmpL3tb protein; SPR sensorgrams fit globally): Two-state reaction; Kd (purified MmpL3tb protein; equilibrium dissociation constant calculated from the rate constants): 36.1 µM; SPR binding signal (purified MmpL3tb protein; in words): strong SPR signals
8 | C[C@@H]1[C@H]2C[C@@H](C[C@H]1NC(=O)c1cc3ccccc3[nH]1)C2(C)C [North 4] | – | 0.64^b μg/mL | 0.32 (≈ 1.08 µM) | 0.08 µg/mL (≈ 0.27 µM) | 1.28^a μg/mL | 0.32 µg/mL (≈ 1.08 µM) | 0.32 µg/mL (≈ 1.08 µM) | 0.16 (≈ 0.54 µM) | consistently bound to MmpL3tb with the strongest signals | 1.28^a μg/mL | 1.28^a μg/mL | 1.28^a μg/mL | 1.28^a μg/mL | 0.64^b μg/mL | –
9 | O=C(O)c1cn(C2CC2)c2cc(N3CCNCC3)c(F)cc2c1=O [CIP, ciprofloxacin] | – | – | – | – | 0.31 µg/mL (≈ 0.936 µM) | 0.31 µg/mL (≈ 0.936 µM) | – | – | – | – | 0.31 µg/mL (≈ 0.936 µM) | – | 0.31 µg/mL (≈ 0.936 µM) | 0.31 µg/mL (≈ 0.936 µM) | MIC [14]: 0.31 µg/mL (≈ 0.936 µM); MIC [15]: 0.31 µg/mL (≈ 0.936 µM); MIC ([1]; Mycolicibacterium smegmatis): 0.31 µg/mL (≈ 0.936 µM); MIC [16]: 0.31 µg/mL (≈ 0.936 µM); MIC [17]: 0.31 µg/mL (≈ 0.936 µM); MIC [18]: 0.31 µg/mL (≈ 0.936 µM); MIC [19]: 0.31 µg/mL (≈ 0.936 µM); MIC ([20]; Mycolicibacterium smegmatis, read-out: MIC): 0.31 µg/mL (≈ 0.936 µM); MIC [21]: 0.31 µg/mL (≈ 0.936 µM); MIC [22]: 0.31 µg/mL (≈ 0.936 µM)
10 | Methyl 4-(3-((3s,5s,7s)-adamantan-1-yl)ureido)-2-((1-(3-(3-(5,5-difluoro-7,9-dimethyl-5H-5λ^4,6λ^4-dipyrrolo[1,2-c:2′,1′-f][1,3,2]diazaborinin-3-yl)propanamido)propyl)-1H-1,2,3-triazol-4-yl)methoxy)benzoate [Compound 4] | 64 | – | – | – | – | – | – | – | – | – | – | – | – | – | probe binding to coated particles (MFI) [24]: concentration-dependent binding

Source: patent US11608328B2, “Chemical probes to identify anti-mycobacterial MmpL3 inhibitors” (Creighton University, priority 2019, dated 2023)
